Measurements published in ChEMBL document CHEMBL2146469, “Mechanisms involved in the antinociceptive effects of 7-hydroxycoumarin” (J Nat Prod, 2011).
Activity calls are given as the source filed them.

Experiments:
Mus musculus [1] = organism: Mus musculus; settings: Swiss, 5 mg/kg
Description: Inhibition of carrageenan-induced PGE2 production in Swiss mouse at 5 mg/kg, po dosed 45 mins before carrageenan dosing measured 3 hrs post carrageenan challenge by ELISA

Mus musculus [2] = assay: Gastric toxicity in Swiss mouse assessed as inflammatory cell index at 10 mg/kg administered as single dose (reference value: 0.2 +/- 0.2 inflammatory cell index); type: organism-based; parameters: dose 10 mg/kg; settings: in vivo
Mus musculus [3] = assay: Gastric toxicity in Swiss mouse assessed as erosion index at 10 mg/kg administered as single dose (reference value: 0 +/- 0 erosion index); type: organism-based; parameters: dose 10 mg/kg; settings: in vivo
Mus musculus [4] = assay: Gastric toxicity in Swiss mouse assessed as edema index at 10 mg/kg administered as single dose (reference value: 0.6 +/- 0.2 edema index); type: organism-based; parameters: dose 10 mg/kg; settings: in vivo
Mus musculus [5] = assay: Gastric toxicity in Swiss mouse assessed as necrosis index at 10 mg/kg administered as single dose (reference value: 0 +/- 0 necrosis index); type: organism-based; parameters: dose 10 mg/kg; settings: in vivo
Mus musculus [6] = assay: Effect on baseline nociceptive threshold in Swiss mouse inflammatory pain model at 30 to 120 mg/kg, po dosed 45 mins before complete Freund's adjuvant dosing measured 4 to 24 hrs post complete Freund's adjuvant challenge by electronic pressure-meter test; type: functional, organism-based
Mus musculus [7] = assay: Antinociceptive activity in Swiss mouse inflammatory pain model assessed as reduction in mechanical hyperalgesia at 30 to 120 mg/kg, po dosed 45 mins before complete Freund's adjuvant dosing measured 2 hrs post complete Freund's adjuvant challenge by electronic pressure-meter test; type: functional, organism-based
Mus musculus [8] = assay: Antinociceptive activity in Swiss mouse inflammatory pain model assessed as reduction in mechanical hyperalgesia at 30 to 120 mg/kg, po dosed 45 mins before complete Freund's adjuvant dosing measured 6 hrs post complete Freund's adjuvant challenge by electronic pressure-meter test; type: functional, organism-based
Mus musculus [9] = assay: Antinociceptive activity in Swiss mouse inflammatory pain model assessed as reduction in mechanical hyperalgesia at 30 to 120 mg/kg, po dosed 45 mins before complete Freund's adjuvant dosing measured 24 hrs post complete Freund's adjuvant challenge by electronic pressure-meter test; type: functional, organism-based
Mus musculus [10] = assay: Antinociceptive activity in Swiss mouse inflammatory pain model assessed as reduction in paw withdrawal response at 60 mg/kg, po dosed once daily for 7 days dosed 45 mins before complete Freund's adjuvant dosing measured post complete Freund's adjuvant challenge; type: functional, organism-based; parameters: dose 60 mg/kg
Mus musculus [11] = assay: Antinociceptive activity in Swiss mouse inflammatory pain model assessed as reduction in paw withdrawal response at 60 mg/kg, po dosed once daily for 7 days dosed 45 mins before complete Freund's adjuvant dosing measured 2 days post compound withdrawal; type: functional, organism-based; parameters: dose 60 mg/kg
Mus musculus [12] = assay: Antinociceptive activity in Swiss mouse inflammatory pain model assessed as reduction in paw edema at 60 mg/kg, po dosed once daily for 7 days dosed 45 mins before complete Freund's adjuvant dosing measured post complete Freund's adjuvant challenge; type: functional, organism-based; parameters: dose 60 mg/kg
Mus musculus [13] = assay: Antinociceptive activity in Swiss mouse inflammatory pain model assessed as reduction in hyperalgesia at 60 mg/kg, po dosed once daily for 7 days dosed 45 mins before carrageenan dosing measured 3 hrs post carrageenan challenge; type: functional, organism-based; parameters: dose 60 mg/kg
Mus musculus [14] = assay: Antinociceptive activity in Swiss mouse inflammatory pain model assessed as reduction in hyperalgesia at 60 mg/kg, po dosed once daily for 7 days dosed 45 mins before PGE2 dosing measured 3 hrs post PGE2 challenge; type: functional, organism-based; parameters: dose 60 mg/kg
Mus musculus [15] = assay: Antinociceptive activity in Swiss mouse inflammatory pain model assessed as reduction in hyperalgesia at 120 mg/kg, po dosed once daily for 7 days dosed 45 mins before PGE2 dosing measured 3 hrs post PGE2 challenge; type: functional, organism-based; parameters: dose 120 mg/kg
Mus musculus [16] = assay: Inhibition of complete Freund's adjuvant-induced IL-1beta production in Swiss mouse at 60 mg/kg, po dosed 45 mins before complete Freund's adjuvant dosing measured up to 24 hrs post complete Freund's adjuvant challenge by ELISA; type: functional, organism-based; parameters: dose 60 mg/kg
Mus musculus [17] = assay: Inhibition of complete Freund's adjuvant-induced TNFalpha production in Swiss mouse at 60 mg/kg, po dosed 45 mins before complete Freund's adjuvant dosing measured up to 2 hrs post complete Freund's adjuvant challenge by ELISA; type: functional, organism-based; parameters: dose 60 mg/kg
Mus musculus [18] = assay: Inhibition of carrageenan-induced PGE2 production in Swiss mouse at 60 mg/kg, po dosed 45 mins before carrageenan dosing measured 3 hrs post carrageenan challenge by ELISA; type: functional, organism-based; parameters: dose 60 mg/kg
Mus musculus [19] = assay: Inhibition of complete Freund's adjuvant-induced neutrophil migration to paw tissue in Swiss mouse at 60 mg/kg, po dosed 45 mins before complete Freund's adjuvant dosing measured 3 to 4 hrs post complete Freund's adjuvant challenge by myeloperoxidase kinetic colorimetric assay; type: functional, organism-based; parameters: dose 60 mg/kg
Mus musculus [20] = assay: Inhibition of carrageenan-induced neutrophil migration to paw tissue in Swiss mouse at 60 mg/kg, po dosed 45 mins before carrageenan dosing measured 3 to 4 hrs post […] challenge by myeloperoxidase kinetic colorimetric assay; type: functional, organism-based; parameters: dose 60 mg/kg
Mus musculus [21] = assay: Toxicity in Swiss mouse assessed as corporal mass changes at 60 mg/kg, po dosed once daily for 7 days (reference value: 0.58 +/- 0.03 g); type: organism-based; parameters: dose 60 mg/kg, route oral; settings: in vivo, 168 h
Mus musculus [22] = assay: Toxicity in Swiss mouse assessed as liver weight changes per 10 gram of body weight at 60 mg/kg, po dosed once daily for 7 days (reference value: 0.73 +/- 0.07 g/10 g body weight); type: organism-based; parameters: dose 60 mg/kg, route oral; settings: in vivo, 168 h
Mus musculus [23] = assay: Toxicity in Swiss mouse assessed as kidney weight changes per 10 gram of body weight at 60 mg/kg, po dosed once daily for 7 days (reference value: 0.06 +/- 0.00 g/10 g body weight); type: organism-based; parameters: dose 60 mg/kg, route oral; settings: in vivo, 168 h
Mus musculus [24] = assay: Toxicity in Swiss mouse assessed as heart weight changes per 10 gram of body weight at 60 mg/kg, po dosed once daily for 7 days (reference value: 0.05 +/- 0.00 g/10 g body weight); type: organism-based; parameters: dose 60 mg/kg, route oral; settings: in vivo, 168 h
Mus musculus [25] = assay: Toxicity in Swiss mouse assessed as total leukocytes level at 60 mg/kg, po dosed once daily for 7 days (reference value: 5.9 +/- 0.8 10^3/mL); type: organism-based; parameters: dose 60 mg/kg, route oral; settings: in vivo, 168 h
Mus musculus [26] = assay: Toxicity in Swiss mouse assessed as creatinine level at 60 mg/kg, po dosed once daily for 7 days (reference value: 0.26 +/- 0.05 mg/dL); type: organism-based; parameters: dose 60 mg/kg, route oral; settings: in vivo, 168 h
Mus musculus [27] = assay: Toxicity in Swiss mouse assessed as ALT level at 60 mg/kg, po dosed once daily for 7 days (reference value: 68.0 +/- 12.8 UI/L); type: organism-based; parameters: dose 60 mg/kg, route oral; settings: in vivo, 168 h
Mus musculus [28] = assay: Toxicity in Swiss mouse assessed as AST level at 60 mg/kg, po dosed once daily for 7 days (reference value: 145.7 +/- 23.4 UI/L); type: organism-based; parameters: dose 60 mg/kg, route oral; settings: in vivo, 168 h
Mus musculus [29] = assay: Gastric toxicity in Swiss mouse assessed as inflammatory cell index at 60 mg/kg administered daily with single dose (reference value: 0.2 +/- 0.2 inflammatory cell index); type: organism-based; parameters: dose 60 mg/kg; settings: in vivo
Mus musculus [30] = assay: Gastric toxicity in Swiss mouse assessed as erosion index at 60 mg/kg administered daily with single dose (reference value: 0 +/- 0 erosion index); type: organism-based; parameters: dose 60 mg/kg; settings: in vivo
Mus musculus [31] = assay: Gastric toxicity in Swiss mouse assessed as edema index at 60 mg/kg administered daily with single dose (reference value: 0.6 +/- 0.2 edema index); type: organism-based; parameters: dose 60 mg/kg; settings: in vivo
Mus musculus [32] = assay: Gastric toxicity in Swiss mouse assessed as necrosis index at 60 mg/kg administered daily with single dose (reference value: 0 +/- 0 necrosis index); type: organism-based; parameters: dose 60 mg/kg; settings: in vivo
Mus musculus [33] = assay: Antinociceptive activity in Swiss mouse inflammatory pain model assessed as reduction in mechanical hyperalgesia at 2 mg/kg, sc dosed 45 mins before complete Freund's adjuvant dosing measured 4 to 24 hrs post complete Freund's adjuvant challenge by electronic pressure-meter test; type: functional, organism-based; parameters: dose 2 mg/kg
Mus musculus [34] = assay: Antinociceptive activity in Swiss mouse inflammatory pain model assessed as reduction in paw withdrawal response at 2 mg/kg, sc dosed once daily for 7 days dosed 45 mins before complete Freund's adjuvant dosing measured post complete Freund's adjuvant challenge; type: functional, organism-based; parameters: dose 2 mg/kg
Mus musculus [35] = assay: Antinociceptive activity in Swiss mouse inflammatory pain model assessed as reduction in paw edema at 2 mg/kg, sc dosed once daily for 7 days dosed 45 mins before complete Freund's adjuvant dosing measured post complete Freund's adjuvant challenge; type: functional, organism-based; parameters: dose 2 mg/kg
Mus musculus [36] = assay: Antinociceptive activity in Swiss mouse inflammatory pain model assessed as reduction in hyperalgesia at 0.5 mg/kg, sc dosed once daily for 7 days dosed 45 mins before carrageenan dosing measured 3 hrs post carrageenan challenge; type: functional, organism-based; parameters: dose 0.5 mg/kg
Mus musculus [37] = assay: Inhibition of complete Freund's adjuvant-induced IL-1beta production in Swiss mouse at 2 mg/kg, sc dosed 45 mins before complete Freund's adjuvant dosing measured up to 24 hrs post complete Freund's adjuvant challenge by ELISA; type: functional, organism-based; parameters: dose 2 mg/kg
Mus musculus [38] = assay: Inhibition of complete Freund's adjuvant-induced TNFalpha production in Swiss mouse at 2 mg/kg, sc dosed 45 mins before complete Freund's adjuvant dosing measured up to 2 hrs post complete Freund's adjuvant challenge by ELISA; type: functional, organism-based; parameters: dose 2 mg/kg
Mus musculus [39] = assay: Inhibition of complete Freund's adjuvant-induced neutrophil migration to paw tissue in Swiss mouse at 2 mg/kg, sc dosed 45 mins before complete Freund's adjuvant dosing measured 3 to 4 hrs post complete Freund's adjuvant challenge by myeloperoxidase kinetic colorimetric assay; type: functional, organism-based; parameters: dose 2 mg/kg
Mus musculus [40] = assay: Inhibition of carrageenan-induced neutrophil migration to paw tissue in Swiss mouse at 2 mg/kg, sc dosed 45 mins before carrageenan dosing measured 3 to 4 hrs post […] challenge by myeloperoxidase kinetic colorimetric assay; type: functional, organism-based; parameters: dose 2 mg/kg
Mus musculus [41] = assay: Antinociceptive activity in Swiss mouse inflammatory pain model assessed as reduction in hyperalgesia at 160 ug/paw dosed 45 mins before PGE2 dosing measured 3 hrs post PGE2 challenge; type: functional, organism-based

Structure (SMILES): CS(=O)(=O)Nc1ccc([N+](=O)[O-])cc1Oc1ccccc1
- inhibition (Mus musculus [1]): Active

Structure (SMILES): COc1ccc2c(c1)c(CC(=O)O)c(C)n2C(=O)c1ccc(Cl)cc1 [INDOMETHACIN]
- Activity (Mus musculus [2]): 4
- Activity (Mus musculus [3]): 3
- Activity (Mus musculus [4]): 2.6
- Activity (Mus musculus [5]): 0

Structure (SMILES): O=c1ccc2ccc(O)cc2o1 [UMBELLIFERONE]
- Activity (Mus musculus [6]): inactive
- Activity (Mus musculus [7]): Dose-dependent effect
- Activity (Mus musculus [8]): Dose-dependent effect
- Activity (Mus musculus [9]): Dose-dependent effect
- Activity (Mus musculus [10]): Active
- Activity (Mus musculus [11]): inactive
- Activity (Mus musculus [12]): Active
- Activity (Mus musculus [13]): Active
- Activity (Mus musculus [14]): inactive
- Activity (Mus musculus [15]): inactive
- inhibition (Mus musculus [16]): Active
- inhibition (Mus musculus [17]): Active
- inhibition (Mus musculus [18]): Active
- inhibition (Mus musculus [19]): Active
- inhibition (Mus musculus [20]): Active
- Activity (Mus musculus [21]): 0.6 g
- Activity (Mus musculus [22]): 0.72 g
- Activity (Mus musculus [23]): 0.07 g
- Activity (Mus musculus [24]): 0.05 g
- Activity (Mus musculus [25]): 6.725 ×10³ /ml
- Activity (Mus musculus [26]): 0.27 mg/dL
- Activity (Mus musculus [27]): 51 IU/L
- Activity (Mus musculus [28]): 115 IU/L
- Activity (Mus musculus [29]): 0.4
- Activity (Mus musculus [30]): 0
- Activity (Mus musculus [31]): 0.7
- Activity (Mus musculus [32]): 0

Structure (SMILES): C[C@@H]1C[C@H]2[C@@H]3CCC4=CC(=O)C=C[C@]4(C)[C@@]3(F)[C@@H](O)C[C@]2(C)[C@@]1(O)C(=O)CO
- Activity (Mus musculus [33]): Active
- Activity (Mus musculus [34]): Active
- Activity (Mus musculus [35]): Active
- Activity (Mus musculus [36]): Active
- inhibition (Mus musculus [37]): Active
- inhibition (Mus musculus [38]): Active
- inhibition (Mus musculus [39]): Active
- inhibition (Mus musculus [40]): Active

Structure (SMILES): Cc1c(N(C)CS(=O)(=O)O)c(=O)n(-c2ccccc2)n1C
- Activity (Mus musculus [41]): Active
